Experimental data: paper PMC11992225, “Antibacterial compounds against non-growing and intracellular bacteria” (npj Antimicrobials and Resistance, 2025)
pEC50, pIC50: −log10 of the molar value. Values after ≈ are worked out from the molar mass of the structure shown. Where two headings read alike, the source gives them in different places.

Columns and labels:
[1] = test system: non-growing P. aeruginosa DSM1117; experiment: Dilution-regrowth assay (OD600, start-growth-time) on stationary-phase P. aeruginosa; format: cell-based, Pseudomonas aeruginosa; settings: P. aeruginosa; for Regrowth, OD600 at 6h or 8h after dilution into drug-free medium: average; for pEC50: regrowth delay of non-growing bacteria, 1:4 CA-MHB pH 7.4, 24 h treatment, OD600 8 h after dilution, read-out: EC50
How it was run: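 Start-growth-time was taken as the point where OD600, recorded every 20 min at 37 °C over about 20 h of regrowth, passed 0.12. Before that, non-growing cultures in HEPES-buffered 1:4 CA-MHB (pH 7.4) were exposed for 24 h, with compounds at 20 μM in preliminary runs.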

[2] = test system: intracellular S. flexneri 5a M90T in TC7 cells; experiment: microbe, parasite or virus in culture; format: cell-based, Shigella flexneri; settings: for Fluorescence intensity (RFU), Mean, 0.25 x MIC / Fluorescence intensity (RFU), Mean, 0.5 x MIC / Fluorescence intensity (RFU), Mean, 2 x MIC / Fluorescence intensity (RFU), Mean, 4 x MIC / Fluorescence intensity (RFU), Mean, 8 x MIC / Fluorescence intensity (RFU), Mean, 16 x MIC / Fluorescence intensity (RFU), Mean, 32 x MIC / Fluorescence intensity (RFU), Mean, MIC / Fluorescence intensity (RFU), Mean, 0.0625 x MIC / Fluorescence intensity (RFU), Mean, 0.125 x MIC: TC7 cells infected with GFP-expressing S. flexneri, 14 h treatment; for MIC:IC50 ratio: S. flexneri MIC in TSB versus intracellular IC50
S. flexneri 5a M90T = experiment: MIC in tryptic soy broth, S. flexneri; format: cell-based, Shigella flexneri; settings: for MIC: Shigella flexneri, 5AM90T, read-out: MIC (μM) TSB; for MIC (μM) TSB: S. flexneri, extracellular bacteria in TSB
How it was run: (§1)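 Broth microdilution was used throughout. UPEC, P. aeruginosa and S. aureus were tested in CA-MHB buffered with 40 mM HEPES (pH 7.4); UPEC was additionally tested in LPM with 30 mM MES (pH 5.5). S. flexneri was grown in TSB. All determinations were run in triplicate.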

E. coli CFT073 (UPEC) = experiment: MIC, standard microdilution assay, growing UPEC; format: cell-based, Escherichia coli
How it was run: as §1

P. aeruginosa DSM1117 = experiment: MIC, standard microdilution assay, growing P. aeruginosa; format: cell-based, Pseudomonas aeruginosa; settings: P. aeruginosa
How it was run: as §1

[3] = Pseudomonas aeruginosa, DSM1117
[4] = Escherichia coli, E. coli, pH 7.4, CA-MHB, read-out: MIC (μM) CA-MHB
[5] = Pseudomonas aeruginosa, DSM1117, CA-MHB pH 7.4, read-out: MIC (μM) CA-MHB
[6] = Escherichia coli, E. coli, LPM pH 5.5, read-out: MIC
[7] = Pseudomonas aeruginosa, DSM1117, 1:4 diluted CA-MHB pH 7.4, read-out: MIC (μM) 1:4 CA-MHB
[8] = Escherichia coli, E. coli, pH 7.4, 1:4 diluted CA-MHB, read-out: MIC (μM) 1:4 CA-MHB
[9] = E. coli, LPM pH 5.5, read-out: MIC
[10] = E. coli, pH 7.4, CA-MHB, read-out: MIC (μM) CA-MHB
[11] = CA-MHB pH 7.4, read-out: MIC (μM) CA-MHB

Row | Compound | pEC50 [1, 3] | pIC50 ([2]; Shigella flexneri, TC7, 14 h) | Fluorescence intensity (RFU), Mean, 0.25 x MIC [2] [RFU] | Fluorescence intensity (RFU), Mean, 0.5 x MIC [2] [RFU] | Fluorescence intensity (RFU), Mean, 2 x MIC [2] [RFU] | Fluorescence intensity (RFU), Mean, 4 x MIC [2] [RFU] | Fluorescence intensity (RFU), Mean, 8 x MIC [2] [RFU] | Fluorescence intensity (RFU), Mean, 16 x MIC [2] [RFU] | Fluorescence intensity (RFU), Mean, 32 x MIC [2] [RFU] | Fluorescence intensity (RFU), Mean, MIC [2] [RFU] | MIC (S. flexneri 5a M90T) [µM] | MIC (E. coli CFT073 (UPEC); [4]) [µM] | MIC (P. aeruginosa DSM1117; [5]) [µM] | MIC:IC50 ratio [2] | MIC (E. coli CFT073 (UPEC); [6]) [µM] | MIC (P. aeruginosa DSM1117; [7]) [µM] | Fluorescence intensity (RFU), Mean, 0.125 x MIC [2] [RFU] | further results
1 | COc1c(N2C[C@@H]3CCCN[C@@H]3C2)c(F)cc2c(=O)c(C(=O)O)cn(C3CC3)c12 [Moxifloxacin] | 6.58 | 7.46 | 7400.12 | 5542.67 | 3672.56 | 2897.78 | 2156.25 | 1789.81 | 1608.56 | 3564.03 | 0.0625 (≈ 0.0251 µg/mL) | 0.125 (≈ 0.0502 µg/mL) | 8 (≈ 3.21 µg/mL) |  |  |  |  | Regrowth, OD600 at 6h or 8h after dilution into drug-free medium ([1]; concentration 0.1): 0.549; Regrowth, OD600 at 6h or 8h after dilution into drug-free medium ([1]; concentration 0.5): 0.215; Regrowth, OD600 at 6h or 8h after dilution into drug-free medium ([1]; concentration 2.5): 0.094; Regrowth, OD600 at 6h or 8h after dilution into drug-free medium ([1]; concentration 10): 0.093
2 | Cc1oc(=O)oc1CN1CCN(c2cc3c(cc2F)c(=O)c(C(=O)O)c2n3C(C)S2)CC1 (stereo not drawn) [Prulifloxacin] | 7.01 | 6.83 |  |  | 8759.64 | 6976.67 | 4116.28 | 3279.44 | 2886.92 | 8494.31 | 0.0312 (≈ 0.0144 µg/mL) | 0.025 (≈ 0.0115 µg/mL) | 1 (≈ 0.461 µg/mL) | below 0.5 | 0.125 (≈ 0.0577 µg/mL) | 1 (≈ 0.461 µg/mL) |  | Regrowth, OD600 at 6h or 8h after dilution into drug-free medium ([1]; concentration 2.5): 0.094; Regrowth, OD600 at 6h or 8h after dilution into drug-free medium ([1]; concentration 10): 0.095
3 | CC[C@H]1OC(=O)C[C@@H](O)[C@H](C)[C@@H](O[C@@H]2O[C@H](C)C[C@H](N(C)C)[C@H]2O)[C@@H](CC=O)C[C@@H](C)C(=O)/C=C/[C@]2(C)O[C@H]2[C@@H]1C [Rosamicin] | 5.64 | 4.63 | 9383.2 | 8207.86 | 3601.92 | 1830.75 |  |  |  | 6316.33 | 16 (≈ 9.31 µg/mL) | 25 (≈ 14.5 µg/mL) | > 100 |  |  | 100 (≈ 58.2 µg/mL) |  | MIC (E. coli CFT073 (UPEC); [8]): 6.25 µM (≈ 3.64 µg/mL)
4 | O=C(O)c1cn(-c2ccc(F)cc2)c2cc(N3CCNCC3)c(F)cc2c1=O [Sarafloxacin] | 6.67 | 6.94 |  |  | 5001.97 | 3626.47 | 3165.28 | 2660.39 | 2149.72 | 7309.11 | 0.0625 (≈ 0.0241 µg/mL) | 0.05 (≈ 0.0193 µg/mL) | 2 (≈ 0.771 µg/mL) |  | 0.5 (≈ 0.193 µg/mL) | 2 (≈ 0.771 µg/mL) |  | 
5 | CC(=O)[O][Pt]([NH2])([Cl])([Cl])([NH]C1CCCCC1)[O]C(C)=O [Satraplatin] |  |  | 8685.25 | 7328.94 | 2689 |  |  |  |  | 4882 |  |  |  |  |  |  | 9284.03 | Regrowth, OD600 at 6h or 8h after dilution into drug-free medium (average) ([1]; drug concentration 0.1): 0.622; Regrowth, OD600 at 6h or 8h after dilution into drug-free medium (average) ([1]; drug concentration 0.5): 0.518; Regrowth, OD600 at 6h or 8h after dilution into drug-free medium (average) ([1]; drug concentration 2.5): 0.207; Regrowth, OD600 at 6h or 8h after dilution into drug-free medium (average) ([1]; drug concentration 10): 0.094; pEC50 [1]: 5.92; Fluorescence intensity (RFU), Mean, 0.0625 x MIC [2]: 9460.97 RFU; MIC (μM) TSB (S. flexneri 5a M90T): 128 µM; MIC (E. coli CFT073 (UPEC); [9]): 32 µM; MIC (E. coli CFT073 (UPEC); [10]): >160 µM; MIC (P. aeruginosa DSM1117; [11]): 160 µM
6 | N[C@@H]1CN(c2c(F)cc3c(=O)c(C(=O)O)cn([C@@H]4C[C@@H]4F)c3c2Cl)CC12CC2 [Sitafloxacin] |  |  |  |  | 4007.53 | 3422.83 | 3200.25 | 2414.89 | 2083.61 | 5217.75 |  |  |  |  |  |  |  | pEC50 [1]: 7.27; pIC50 ([2]; intracellular S. flexneri in TC7 cells, GFP fluorescence after 14 h treatment, read-out: IC50): 7.60; MIC (μM) TSB (S. flexneri 5a M90T): 0.01562 µM (≈ 0.0064 µg/mL); MIC (E. coli CFT073 (UPEC); [9]): 0.5 µM (≈ 0.205 µg/mL); MIC (E. coli CFT073 (UPEC); [10]): 0.025 µM (≈ 0.0102 µg/mL); MIC (P. aeruginosa DSM1117; 1:4 diluted CA-MHB pH 7.4, read-out: MIC (μM) 1:4 CA-MHB): 0.5 µM (≈ 0.205 µg/mL); MIC (P. aeruginosa DSM1117; [11]): 0.5 µM (≈ 0.205 µg/mL)
7 | CC[C@H]1OC(=O)[C@@](C)(F)C(=O)[C@H](C)[C@@H](O[C@@H]2O[C@H](C)C[C@H](N(C)C)[C@H]2O)[C@](C)(OC)C[C@@H](C)C(=O)[C@H](C)[C@H]2N(CCCCn3cc(-c4cccc(N)c4)nn3)C(=O)O[C@]12C [Solithromycin] | 6.80 | 5.78 | 4637.62 | 2156.75 | 1563.03 | 1560.69 | 1548.25 | 1546 | 1533.19 | 1837.61 | 8 (≈ 6.76 µg/mL) | 8 (≈ 6.76 µg/mL) | 80 (≈ 67.6 µg/mL) | > 2 |  | 80 (≈ 67.6 µg/mL) | 9214.08 | Fluorescence intensity (RFU), Mean, 0.0625 x MIC [2]: 9882.71 RFU; MIC (μM) CA-MHB +PAβN (E. coli CFT073 (UPEC); E. coli, pH 7.4, CA-MHB with 10 μg/ml efflux pump inhibitor PaβN): 4 µM (≈ 3.38 µg/mL); MIC (E. coli CFT073 (UPEC); [8]): 10 µM (≈ 8.45 µg/mL); MIC (μM) CA-MHB +PAβN (P. aeruginosa DSM1117; CA-MHB with 10 μg/ml PaβN): >80 µM
8 | C[C@@H]1CN(c2c(F)c(N)c3c(=O)c(C(=O)O)cn(C4CC4)c3c2F)C[C@H](C)N1 [Sparfloxacin] | 6.42 | 7.92 | 5576.79 | 4270.29 | 2726.47 | 2375.69 | 1916.33 | 1615.39 | 1554.53 | 2934.67 | 0.0312 (≈ 0.0123 µg/mL) | 0.025 (≈ 0.00981 µg/mL) | 2 (≈ 0.785 µg/mL) | > 2 |  | 2 (≈ 0.785 µg/mL) |  | 
9 | NC1CCN(c2nc3c(cc2F)c(=O)c(C(=O)O)cn3-c2ccc(F)cc2F)C1 (stereo not drawn) [Tosufloxacin] | 6.63 | 7.60 |  |  | 4963.31 | 3475.06 | 3341.83 | 2905.56 | 2463.67 | 6769 | 0.0156 (≈ 0.00632 µg/mL) | 0.05 (≈ 0.0202 µg/mL) | 1 (≈ 0.404 µg/mL) |  | 0.125 (≈ 0.0505 µg/mL) |  |  | 
10 | N[C@@H]1[C@H]2CN(c3nc4c(cc3F)c(=O)c(C(=O)O)cn4-c3ccc(F)cc3F)C[C@@H]12 [Trovafloxacin] | 5.99 | 7.43 | 8024.79 | 6129.12 | 2933.5 | 2559.17 | 2016.56 | 1696.44 | 1579.94 | 3277.92 | 0.0625 (≈ 0.026 µg/mL) | 0.4 (≈ 0.167 µg/mL) | 2 (≈ 0.833 µg/mL) |  |  | 8 (≈ 3.33 µg/mL) | 8837.54 | MIC (E. coli CFT073 (UPEC); Escherichia coli, pH 5.5): 0.0625 µM (≈ 0.026 µg/mL); increase of MIC in diluted CA-MHB versus CA-MHB (P. aeruginosa DSM1117): four
